Where a name gives a salt, the structure may show the parent alone.
Columns and labels:
human platelets = assay: Inhibition of the binding of 3H-BIBU 52 to human platelets (fibrinogen binding test); settings: 3H-BIBU 52 5 nM, human platelets in plasma, room temperature, 20 minutes
Method: 1. Inhibition of the Binding of ^3 H-BIBU 52 to Human Platelets:
A suspension of human platelets in plasma is incubated with ^3 H-BIBU 52 [=(3S,5S)-5-[(4'-amidino-4-biphenylyl)-oxymethyl]-3-[(carboxyl)methyl]-2-pyrrolidinone[3-^3 H-4-biphenylyl]], which replaces the ligand ^125 I-fibrinogen known from the literature, (see DE-A-4,214-245) and varius concentrations of the substance to be tested. The free and bound ligand are separated by centrigation and determined quantitatively by scintillation counting. The inhibition of ^3 H-BIBU 52 binding by the test substance is determined from the measurement values.
For this, donor blood is withdrawn form an anticubital vein and anticoagulated with trisodium citrate (final concentration 13 mM). The blood is centriged at 170×g for 10 minutes and the supernatant platelet-rich plasma (PRP) is removed. The residual blood is centriged off under severe conditions once more to isolate the plasma. The PRP is diluted 1:10 with autologous plasma. 750 μl are incubated with 50 μl of physiological saline solution, 100 μl of test substance solution, 50 μl of 14C-sucrose (3,700 Bq) and 50 μl of ^3 H-BIBU 52 (final centration: 5 nM) at room temperature for 20 minutes. To measure the non-specific binding, 100 μl of BIBU 52 (final concentration: […]) are employed instead of the test substance. The samples are centrifuged at 10,000×g for 20 seconds and the supernatant is removed. 100 μl of this are measured for determination of the free ligand. The pellet is dissolved in 500 μl of 0.2N NaOH, […] of scintillator and 25 μl of 5N HCl are added to 450 μl and the sample is measured. The residual plasma which still remains in the pellet is determined from the ^14 C content and the bound ligand is determined from the ^3 H measurement. After subtraction of the non-specific binding, the pellet activity is plotted against the concentration f the test substance and the concentration for 50% inhibition of binding is determined.

Platelet aggregation = assay: Inhibition of collagen-induced platelet aggregation (method of Born and Cross) in platelet-rich plasma; format: cell-based, human (healthy test persons); settings: 10 minutes at 37° C., 50% change in optical density
Method: 2. Antithrombotic Action: Method Platelet aggregation is measured in platelet-rich plasma of healthy test persons by the method of Born and Cross (J. Physiol. 170, 397 (1964)). To inhibit coagulation, 3.14% sodium citrate is added to the blood in a volume ratio of 1:10. Collagen-induced aggregation The course of the decrease in the optical density of the platelet suspension after addition of the substance which induces aggregation is measured and recorded photometrically. The rate of aggregation is concluded from the angle of inclination of the density curve. The point on the curve at which the highest light transmission exists is used to calculate the "optical density". The amount of collagen is as low as possible, but is enough to result in a reaction curve which proceeds irreversibly. Commercially available collagen from Hormonchemie, Munich is used. Before addition of the collagen, the plasma is incubated with the substance for in each case 10 minutes at 37° C. An EC50 which is based on a 50% change in "optical density" in the sense of inhibition of aggregation is determined graphically from the measurement figures obtained.

[1] = set-up: species or system mice; settings: mouse, in vivo, iv, 200 mg/kg

Compound | IC50 (human platelets) | EC50 (Platelet aggregation; Homo sapiens, 10 min) | toxic side effects [1] | EC50 (Platelet aggregation)
CC(C)OC(=O)COc1ccc(NC(=O)N2CCN(C3CCNCC3)CC2)cc1 [4(6), Isopropyl [4-[[4-(4-piperidinyl)-piperazin-1-yl]carbonylamino]-phenoxy]acetate dihydrochloride] | 13000 nM | 280 nM | – | –
CCOC(=O)COc1ccc(NC(=O)N2CCN(C3CCNCC3)CC2)cc1 [4(13), Ethyl [4-[[4-(4-piperidinyl)-piperazin-1-yl]carbonylamino]-phenoxy]acetate dihydrochloride] | 310 nM | 130 nM | – | –
O=C(O)CC[C@H]1CC[C@H](NC(=O)N2CCN(C3CCNCC3)CC2)CC1 [Example 1(1), [3-[4-trans-[4-(4-Piperidinyl)-piperazin-1-yl]carbonylamino]cyclohexyl]propionic acid dihydrochloride] | 76 nM | 95 nM | – | –
O=C(O)CCCC1CCN(C(=O)N2CCN(C3CCNCC3)CC2)CC1 [Example 1(13), N-[[4-(4-Piperidinyl)-piperazin-1-yl]-carbonyl]-4-(4-piperidinyl)-butyric acid dihydrochloride] | 270 nM | 320 nM | – | –
O=C(O)COc1ccc(C(=O)CN2CCN(C3CCNCC3)CC2)cc1 [Example 1(19), [4-[[4-(4-Piperidinyl)-piperazin-1-yl]acetyl]phenoxyl-acetic acid trihydrochloride] | 200 nM | 390 nM | – | –
O=C(O)COc1ccc(NC(=O)N2CCN(C3CCNCC3)CC2)cc1 [Example 1(23), [4-[[4-(4-Piperidinyl)-piperazin-1-yl]carbonylaminolphenoxyl-acetic acid dihydrochloride] | 67 nM | 98 nM | no toxic side effects were observed | –
O=C(O)CCOC1CCN(C(=O)N2CCN(C3CCNCC3)CC2)CC1 [Example 1(30), N-[[4-(4-Piperidinyl)-piperazin-1-yl]carbonyl]-3-(piperidin-4-yloxy)-propionic acid dihydrochloride] | 210 nM | 640 nM | – | –
O=C(CCN1CCN(C2CCNCC2)CC1)N[C@H]1CC[C@H](C(=O)O)CC1 [Example 1, [4-trans-[3-[4-(4-Piperidinyl)-piperazin-1-yl]propionyl]-amino]cyclohexanecarboxylic acid dihydrochloride] | 510 nM | 240 nM | – | –
COC(=O)COc1ccc(C(=O)CN2CCN(C3CCNCC3)CC2)cc1 [Example 2(11), Methyl [4-[[4-(4-piperidinyl)-piperazin-1-yl]acetyl]phenoxyl-acetatetrihydrochloride] | 33000 nM | 420 nM | – | –
CCOC(=O)CCOC1CCN(C(=O)N2CCN(C3CCNCC3)CC2)CC1 [Example 2(15), Ethyl N-[[4-(4-piperidinyl)-piperazin-1-yl]-carbonyl]-3-(piperidin-4-yloxy)-propionate dihydrochloride] | 38000 nM | > 10000 nM | – | –
COC(=O)COc1ccc(NC(=O)N2CCN(C3CCNCC3)CC2)cc1 [Example 3(7), Methyl [4-[[4-(4-piperidinyl)-piperazin-1-yl]carbonylamino]phenoxy]acetate dihydrochloride] | 270 nM | 110 nM | – | –
CC(C)(C)OC(=O)COc1ccc(NC(=O)N2CCN(C3CCNCC3)CC2)cc1 [Example 3(11), tert-Butyl [4-[[4-(4-piperidinyl)-piperazin-1-yl]carbonylamino]-phenoxy]acetate dihydrochloride] | 630 nM | 980 nM | – | –
CC(C)COC(=O)COc1ccc(NC(=O)N2CCN(C3CCNCC3)CC2)cc1 [Example 4(7), Isobutyl [4-[[4-(4-piperidinyl)-piperazin-1-yl]carbonylamino]-phenoxy]acetate dihydrochloride] | 18000 nM | 100 nM | – | –
CC(C)(C)COC(=O)COc1ccc(NC(=O)N2CCN(C3CCNCC3)CC2)cc1 [Example 4(8), Neopentyl [4-[[4-(4-piperidinyl)-piperazin-1-yl]carbonylamino]-phenoxy]acetate dihydrochloride] | 170 nM | 120 nM | – | –
O=C(COc1ccc(NC(=O)N2CCN(C3CCNCC3)CC2)cc1)OC1CCCC1 [Example 4(9), Cyclopentyl [4-[[4-(4-piperidinyl)-piperazin-1-yl]carbonylamino]-phenoxy]acetate dihydrochloride] | 4700 nM | 160 nM | – | –
O=C(COc1ccc(NC(=O)N2CCN(C3CCNCC3)CC2)cc1)OC1CCCCCC1 [Example 4(10), Cycloheptyl [4-[[4-(4-piperidinyl)-piperazin-1-yl]carbonylamino]-phenoxy]acetate dihydrochloride] | 590 nM | 91 nM | – | –
CCCCOC(=O)COc1ccc(NC(=O)N2CCN(C3CCNCC3)CC2)cc1 [Example 4(11), Butyl [4-[[4-(4-piperidinyl)-piperazin-1-yl]carbonylamino]-phenoxy]acetate dihydrochloride] | 19000 nM | 110 nM | – | –
O=C(COc1ccc(NC(=O)N2CCN(C3CCNCC3)CC2)cc1)OC1CCCCC1 [Example 4(12), Cyclohexyl [4-[[4-(4-piperidinyl)-piperazin-1-yl]carbonylamino]-phenoxy]acetate dihydrochloride] | – | 290 nM | – | –
O=C(CC[C@H]1CC[C@H](NC(=O)N2CCN(C3CCNCC3)CC2)CC1)OC1CCCCC1 [Example 4, Cyclohexyl 3-[4-trans-[[4-(4-piperidinyl)-piperazin-1-yl]carbonylamino]-cyclohexylpropionatedihydrochloride] | 270 nM | 360 nM | – | –
O=C(O)CN1CCC(OCC(=O)N2CCN(C3CCNCC3)CC2)CC1 [Example 22(8), [4-[[[4-(piperidin-4-yl)-piperazin-1-yl]-carbonyl]-methyloxy]-piperidin-1-yl]-acetic acid] | 27 nM | 100 nM | – | –
O=C(O)CN1CCC(CCC(=O)N2CCN(C3CCNCC3)CC2)CC1 [Example 24(1), [4-[2-[[4-(Piperidin-4-yl)-piperazin-1-yl]-carbonyl]-ethyl]-piperidin-1-yl]-acetic acid trihydrochloride] | 12 nM | 94 nM | – | –
N-[4-[[4-(4-Piperidinyl)-piperazin-1-yl]carbonyl]piperi-dinyl]-β-alanine trihydrochloride [Example 1(5)] | 78 nM | – | – | 250 nM
